Laboratory results from PubChem BioAssay (NCI).
Values joined by “and” are separate entries in the source; they are usually repeats but may differ in a detail not shown here. Equal entries are not always repeated.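 Results reflect a 48-hour exposure of cells in 96-well plates to compound at five concentrations. Here, GI50 denotes the concentration required for 50% inhibition of growth. Definition used: TGI = concentration required for complete inhibition of growth.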

Tests used:
Assay in all cases: NCI tumour cell line growth inhibition, 48 h
[1] = tested on: HOP-62 NSCLC
[2] = tested on: HCT-15 colon
[3] = tested on: NCI-H23 lung
[4] = tested on: SK-MEL-2 melanoma
[5] = tested on: SF-295 CNS
[6] = tested on: SF-539 CNS
[7] = tested on: MALME-3M melanoma
[8] = tested on: A549 NSCLC
[9] = tested on: HS 578T breast
[10] = tested on: PC-3 prostate
[11] = tested on: BT-549 breast

Structure (SMILES) | TGI [1] [µM] | TGI [2] [µM] | TGI [3] [µM] | TGI [4] [µM] | TGI [5] [µM] | TGI [6] | TGI [7] [µM] | TGI [8] [µM] | TGI [9] [µM] | TGI [10] [µM] | TGI [11] [µM] | GI50 [1] [µM] | GI50 [2] [µM] | GI50 [3] [µM] | GI50 [4] [µM] | GI50 [6] [µM] | GI50 [10] [µM] | GI50 [8] [µM]
Cc1c2ccncc2cc2c1[nH]c1ccccc12 | 21.8 | 28.1 | 15.9 | 23.2 | 16.9 | 5.17 µM | 20.5 | 15.1 |  |  |  |  |  |  |  |  |  | 
COc1ccc(C(c2c(O)c3ccccc3n(-c3ccccc3)c2=O)c2c(O)c3ccccc3n(-c3ccccc3)c2=O)cc1 | > 100 | > 100 | > 100 | > 100 |  | > 100 µM | > 100 | > 100 |  |  |  |  |  |  |  |  |  | 
O=C1C(Br)=C(c2ccccc2)O/C1=C/C(=O)c1ccc(Br)cc1 | > 100 | > 100 | > 100 |  |  | > 100 µM | > 100 |  | > 100 | 53.3 | 25.5 |  |  |  |  |  |  | 
NC1=C(NC(=O)Cc2ccccc2F)C(=O)c2ccccc2C1=O | 51 | > 100 | > 100 | > 100 | > 100 | 62 µM | 50.9 | > 100 |  |  |  |  |  |  |  |  |  | 
CCOc1ccc2[nH]c3c(C)c4ccncc4c(C)c3c2c1 | 2.3 | 1.61 | 3.01 | 2.48 | 2.19 | 2.94 µM | 2.83 | 2.88 |  |  |  |  |  |  |  |  |  | 
O=C1/C(=C\c2cccc(Oc3ccccc3)c2)SC(c2ccccc2)N1c1ccccc1 (stereo not drawn) | > 100 | > 100 | > 100 | > 100 | > 100 | 93.6 µM | > 100 | > 100 | > 100 |  | > 100 |  |  |  |  |  |  | 
CC(=O)OCC1OC(n2cc(F)c(=O)[nH]c2=O)C(NC(=O)OCc2ccccc2)C(OC(C)=O)C1OC(C)=O (stereo not drawn) | > 100 | > 100 | > 100 | > 100 | > 100 | > 100 µM | > 100 | > 100 |  |  |  |  |  |  |  |  |  | 
Brc1ccc(C[P+]2(c3ccccc3)CCCCC2)cc1 | > 100 | > 100 | > 100 | > 100 | > 100 | > 100 µM | > 100 | > 100 |  |  |  |  |  |  |  |  |  | 
O=C1c2cc(Cl)ccc2NC(=NC2CCCC2)C2CSCN12 (stereo not drawn) | > 100 | > 100 |  | > 100 | > 100 |  | > 100 | > 100 | > 100 | > 100 | > 100 |  |  |  |  |  |  | 
Cc1ccc(NC=O)c(-c2c(N)[nH]c(=S)[nH]c2=O)c1 | > 100 | > 100 | > 100 | > 100 | > 100 | > 100 µM | > 100 | > 100 | > 100 |  | > 100 |  |  |  |  |  |  | 
COC(=O)/C=C(C)/C=C/C1OC(C)OCC1O (stereo not drawn) | > 100 | > 100 | > 100 |  | > 100 | > 100 µM | > 100 | > 100 |  |  |  |  |  |  |  |  |  | 
CN(C(=O)Cc1ccccc1)n1cnn(CC(=O)OC(C)(C)C)c1=S | > 10 | > 10 | > 10 |  | > 10 | > 10 µM | > 10 | > 10 | > 10 | > 10 | > 10 |  |  |  |  |  |  | 
CCOC(=O)c1[nH]c(Br)c(-c2ccc(OC)c(OC)c2)c1Br | 14.8 | 15.4 |  | 20.2 | 0.0356 | 0.0428 µM and 0.0128 µM |  | 23 |  | 23.7 | 3.16 | 0.0253 | 0.04 | 7.83 | 0.0152 | 0.0116 | 0.0112 | 0.0564
CCOC(=O)c1c(N=P(c2ccccc2)(c2ccccc2)c2ccccc2)nnc(-c2ccccc2)c1-c1ccccc1 | > 100 | > 100 | > 100 | > 100 | > 100 | > 100 µM | > 100 | > 100 |  | > 100 |  |  |  |  |  |  |  | 
COC(=O)c1ccc(/C=C2\Oc3ccccc3C2=O)cc1 | > 100 | > 100 | > 100 |  | > 100 | > 100 µM |  | > 100 | > 100 | > 100 | > 100 |  |  |  |  |  |  | 
c1cc2c(s1)-c1sccc1C21OCCO1 | > 100 | > 100 | > 100 | > 100 | > 100 | > 100 µM | > 100 | > 100 |  |  | > 100 |  |  |  |  |  |  | 
NC(=S)/N=C(/c1nc2ccc(Cl)cc2[nH]c1=O)C(O)c1ccccc1Cl (stereo not drawn) | > 100 | > 100 | > 100 | > 100 | > 100 | > 100 µM | > 100 | > 100 |  |  |  |  |  |  |  |  |  | 
O=C(/C=C/c1ccccc1)CSc1ncn[nH]1 | > 100 | > 100 | > 100 | > 100 | > 100 | > 100 µM | > 100 | > 100 |  | > 100 | > 100 |  |  |  |  |  |  | 
COC(=O)CCC1=C(CC(=O)OC)C(C)(OC)N=C1NC(=O)OCc1ccccc1 (stereo not drawn) | > 100 | > 100 | > 100 | > 100 | > 100 | > 100 µM | > 100 | > 100 |  | > 100 | > 100 |  |  |  |  |  |  | 
O=C(NCCN1CCOCC1)c1cn2c(ccc3sc4ccccc4c(=O)c32)n1 | > 100 | > 100 | > 100 |  | 44.9 | > 100 µM | > 100 | > 100 | 47.3 | > 100 | > 100 |  |  |  |  |  |  | 
CC1(C)OC2[C@@H](CO[C@@]3([C@@H](O)CCO)OC(C)(C)O[C@@H]23)O1 (stereo partly drawn) | > 100 | > 100 | > 100 | > 100 | > 100 | > 100 µM |  |  |  | > 100 | > 100 |  |  |  |  |  |  | 
Cc1nc(CC#N)n[nH]1 | > 100 | > 100 | > 100 | > 100 | > 100 | > 100 µM |  | > 100 |  | > 100 | > 100 |  |  |  |  |  |  | 
